Tests used:
[1] = Thermogravimetric analysis (TGA) of freeze-dried surface-modified particles; assay type: physicochemical; conditions: for Decomposition Temp.: TGA in helium, surfactant on NIR-sensitive nanoparticles; for Ave. Absorbed (amount of ligand adsorbed): TGA of freeze-dried particles
Protocol: Thermogravimetric analysis (TGA) was conducted in helium using a Perkin-Elmer series 7 Thermal Analysis system at a ramp rate of 4° C./min from 30° C. to 900° C.

[2] = Protocol: Anti-cancer drugs and other biomolecules can be loaded onto the NIR-sensitive nanoparticles by coating the particles with surfactants. […] The insolubility of MUA in water necessitated the chemisorption of MUA in absolute ethanol. NIR-sensitive nanoparticles (colloids) were separated from the aqueous reaction mixture by centrifugation, and dispersed in 100 mM MUA in absolute ethanol. The nanoparticles (colloids) were dispersed in these surfactant solutions for 3 days, an estimated time for chemisorption to reach equilibrium.

Structure (SMILES) | Decomposition Temp. [1] | Ave. Absorbed (amount of ligand adsorbed) [1] | solubility in water [2]
O=C(O)CS [MAA, mercaptoacetic acid] | ~150 °C | 0.14 ± 0.01 nmol/mg | –
O=C(O)CCCCCCCCCCS [MUA, mercaptoundecanoic acid] | ~200 °C | 0.10 ± 0.03 nmol/mg | insolubility

— patent US7601331B2, “NIR-sensitive nanoparticle” (National University of Singapore, priority 2004, dated 2009)
